{
  "source": "patent US20260242394A1",
  "about": "“USP2 INHIBITORS AND METHODS OF USING THE SAME FOR THE TREATMENT OF DISEASES” (ICAHN SCHOOL OF MEDICINE AT MOUNT SINAI, priority 2023, published 2026)",
  "tested_on": "ACE2-dependent pseudotypes",
  "assay_type": "cell-based",
  "data": [
    {"smiles": "Cc1ccc(S(=O)(=O)Nc2ccc(C(F)(F)F)cc2C(=O)Nc2nc(-c3ccc(Br)cc3)cs2)cc1", "note": "[XH161-102 (MS102), N-(4-(4-bromophenyl)thiazol-2-yl)-2-((4-methylphenyl)sulfonamido)-5-(trifluoromethyl)benzamide]", "values": [
      {"measurement": "activity in preventing cell entry of ACE2-dependent pseudotypes", "value": "enhanced activity"}
    ]}
  ]
}
